Publication PMC4029172 (eLife, 2014)
≈ marks a conversion by molar mass, not a printed value. Numbered stars: 1 amine (or outer) side, 2 acyl side, 3 side chain; on linkers, the order of the positions; unused ones are H or OH. Bridge positions count the residues as written; N and C are the ends. Square brackets hold non-standard residues; d marks the D form. Peptide text beside a SMILES is read from it. * marks the point of attachment. X4 = CC(Oc1ccc(C(N[*:1])C(=O)[*:2])cc1)C(O)(C=CC(=O)[*:3])CCl; NMeF = CN[CH](Cc1ccccc1)C(=O)O; X3 = CC(C)C(O)C(C)C(=O)*

What was measured:
[1] = tested on: Enterobacter cloacae ATCC 13047; assay: microbe, parasite or virus in culture; format: cell-based; conditions: ATCC13047
[2] = tested on: Moraxella catarrhalis ATCC 25238; assay: microbe, parasite or virus in culture; format: cell-based; conditions: ATCC25238
[3] = tested on: Haemophilus influenzae ATCC 49247; assay: microbe, parasite or virus in culture; format: cell-based; conditions: ATCC49247
[4] = target: Thermus thermophilus RNAP (Thermus thermophilus, UniProt Q8RQE8+Q8RQE9); assay: biochemical
Thermus thermophilus RNAP, sequence (Q8RQE8 whole entry): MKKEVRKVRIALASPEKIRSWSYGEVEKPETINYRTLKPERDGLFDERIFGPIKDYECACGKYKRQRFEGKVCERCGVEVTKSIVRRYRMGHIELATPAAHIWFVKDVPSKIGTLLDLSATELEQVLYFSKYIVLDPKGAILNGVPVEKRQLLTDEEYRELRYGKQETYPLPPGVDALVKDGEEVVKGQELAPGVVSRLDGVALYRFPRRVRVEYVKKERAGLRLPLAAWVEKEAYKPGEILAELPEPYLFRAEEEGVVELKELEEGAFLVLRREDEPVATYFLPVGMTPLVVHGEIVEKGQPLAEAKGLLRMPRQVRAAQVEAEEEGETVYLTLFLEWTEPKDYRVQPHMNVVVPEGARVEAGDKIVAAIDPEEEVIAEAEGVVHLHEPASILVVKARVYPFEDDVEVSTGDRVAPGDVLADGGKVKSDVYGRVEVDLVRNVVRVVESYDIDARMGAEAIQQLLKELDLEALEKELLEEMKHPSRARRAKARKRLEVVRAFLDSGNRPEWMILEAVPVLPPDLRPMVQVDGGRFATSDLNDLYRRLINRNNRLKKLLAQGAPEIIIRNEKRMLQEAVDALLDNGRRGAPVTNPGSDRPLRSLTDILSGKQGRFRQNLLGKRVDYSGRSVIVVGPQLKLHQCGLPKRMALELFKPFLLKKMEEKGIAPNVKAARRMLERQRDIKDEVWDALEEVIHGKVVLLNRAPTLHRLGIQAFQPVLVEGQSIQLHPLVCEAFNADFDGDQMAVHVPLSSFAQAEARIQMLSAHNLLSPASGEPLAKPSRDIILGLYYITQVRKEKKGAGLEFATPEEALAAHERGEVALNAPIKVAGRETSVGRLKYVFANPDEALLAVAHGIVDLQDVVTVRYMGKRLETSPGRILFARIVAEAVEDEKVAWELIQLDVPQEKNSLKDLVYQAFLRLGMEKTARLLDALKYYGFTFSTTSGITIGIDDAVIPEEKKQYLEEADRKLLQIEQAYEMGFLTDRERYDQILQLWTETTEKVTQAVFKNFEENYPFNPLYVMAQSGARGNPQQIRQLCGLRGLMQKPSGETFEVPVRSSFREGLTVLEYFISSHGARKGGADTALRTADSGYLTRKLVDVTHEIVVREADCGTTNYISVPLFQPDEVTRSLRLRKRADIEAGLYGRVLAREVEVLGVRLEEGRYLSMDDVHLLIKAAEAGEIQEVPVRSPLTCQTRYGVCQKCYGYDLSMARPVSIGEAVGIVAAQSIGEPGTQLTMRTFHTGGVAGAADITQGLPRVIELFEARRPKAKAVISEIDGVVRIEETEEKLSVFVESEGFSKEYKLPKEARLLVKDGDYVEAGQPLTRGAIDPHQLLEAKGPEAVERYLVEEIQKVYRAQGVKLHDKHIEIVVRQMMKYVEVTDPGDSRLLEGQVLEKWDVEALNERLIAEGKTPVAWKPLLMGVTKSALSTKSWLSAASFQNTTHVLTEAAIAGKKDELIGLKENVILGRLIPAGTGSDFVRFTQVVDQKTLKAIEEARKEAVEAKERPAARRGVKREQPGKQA
Thermus thermophilus RNAP, sequence (Q8RQE9 whole entry): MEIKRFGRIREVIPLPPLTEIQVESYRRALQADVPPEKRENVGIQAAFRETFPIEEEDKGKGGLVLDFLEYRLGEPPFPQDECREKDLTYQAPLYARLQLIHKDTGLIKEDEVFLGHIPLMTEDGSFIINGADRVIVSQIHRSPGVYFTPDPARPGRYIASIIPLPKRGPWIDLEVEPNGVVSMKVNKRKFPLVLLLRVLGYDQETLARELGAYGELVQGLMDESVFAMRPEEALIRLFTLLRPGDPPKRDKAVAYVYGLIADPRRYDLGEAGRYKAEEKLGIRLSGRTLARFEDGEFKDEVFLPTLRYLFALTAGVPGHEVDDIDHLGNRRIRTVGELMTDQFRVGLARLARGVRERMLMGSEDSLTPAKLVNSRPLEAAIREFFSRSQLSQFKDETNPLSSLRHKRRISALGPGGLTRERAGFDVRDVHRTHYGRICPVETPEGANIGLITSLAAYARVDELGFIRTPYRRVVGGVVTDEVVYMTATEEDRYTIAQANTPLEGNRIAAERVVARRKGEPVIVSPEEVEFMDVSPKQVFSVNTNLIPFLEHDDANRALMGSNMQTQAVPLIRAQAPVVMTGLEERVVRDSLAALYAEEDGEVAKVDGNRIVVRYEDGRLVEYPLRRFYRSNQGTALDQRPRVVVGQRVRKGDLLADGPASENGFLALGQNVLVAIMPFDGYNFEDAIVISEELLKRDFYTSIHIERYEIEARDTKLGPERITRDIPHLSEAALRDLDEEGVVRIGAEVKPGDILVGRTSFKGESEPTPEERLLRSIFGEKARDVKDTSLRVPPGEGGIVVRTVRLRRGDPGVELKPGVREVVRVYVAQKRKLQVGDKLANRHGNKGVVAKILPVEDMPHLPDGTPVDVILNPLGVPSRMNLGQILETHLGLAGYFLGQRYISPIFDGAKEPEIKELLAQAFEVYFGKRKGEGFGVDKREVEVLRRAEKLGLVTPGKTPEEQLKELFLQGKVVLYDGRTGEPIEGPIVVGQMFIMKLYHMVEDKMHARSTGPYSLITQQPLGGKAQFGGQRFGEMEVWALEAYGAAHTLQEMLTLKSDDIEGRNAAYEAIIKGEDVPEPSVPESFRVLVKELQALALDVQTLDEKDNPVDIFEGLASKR

## CCC(C)C1NC(=O)C(NC(=O)C(C)C(O)C(C)C)C(C)OC(=O)C2COC(=O)CNC(=O)C=CC(O)(CCl)C(C)Oc3ccc(cc3)C(NC1=O)C(=O)N(C)C(Cc1ccccc1)C(=O)NC(C(C)O)C(=O)N2 (stereo not shown) [SalB, salinamide B] (X3-TI[X4][NMeF]TS; ester 1-C; linker 3-6 via G; configuration not given here)
[1]
  MIC: 12.5 µg/mL (≈ 11.8 µM)
[2]
  MIC: > 50 µg/mL
[3]
  MIC: 12.5 µg/mL (≈ 11.8 µM)
[4]
  IC50: > 100 µM
